Experimental data as given in PMC7391456, “Targeting fibroblast activation protein (FAP): next generation PET radiotracers using squaramide coupled bifunctional DOTA and DATA^5m chelators” (EJNMMI Radiopharmacy and Chemistry, 2020).

How the values were obtained:
PANC-1 = tested on: PANC-1; parameters: method as in Watabe et al. [2020]; conditions: read from graphs, ref Watabe et al. [2020], cited from earlier work
HT-1080 FAP = tested on: HT-1080 FAP; parameters: method as in Lindner et al. [2018]; conditions: HT-1080 FAP tumor model, read from graphs; ref Lindner et al. [2018]; cited from earlier work
MIA-PaCa-2 = tested on: MIA-PaCa-2; parameters: method as in Watabe et al. [2020]; conditions: MIA-PaCa-2 tumor model, read from graphs; ref Watabe et al. [2020]; cited from earlier work
FAP = tested on: FAP; parameters: method as in originally published value; conditions: different FAP substrate (Ala-Pro-pNA); ref originally published value; cited from earlier work
[1] = Stability studies of gallium-68 complexes in media (EtOH, human serum, saline, PBS); type: physicochemical; conditions: different media (summary statement)
Procedure: Gallium-68 stability studies against transmetallation (Fe, Cu, Ca, Mg), transchelation (EDTA, DTPA) as well as in HS, EtOH and saline (0.9% isotone NaCl-solution) were performed. 50 μl of the [^68Ga]Ga-DOTA.SA.FAPi labeling solution with > 95% radiochemical purity were added to 1 mL of the respective media. The measured time points for gallium-68 were 15, 30, 45, 60, 90, 120 min. HS (human male AB plasma, USA origin) was bought from Sigma Aldrich, PBS was purchased from Sigma Aldrich and 0.9% saline from B. Braun Melsungen AG (Melsungen, Germany).

Human recombinant PREP = molecular target: T1, Human recombinant PREP (Homo sapiens, UniProt P48147); assay: PREP inhibition assay (IC50, N-succinyl-Gly-Pro-AMC substrate); type: biochemical; conditions: N-succinyl-Gly-Pro-AMC 250 μM, pH 7.4, 15 min pre-incubation at 37 °C
T1 sequence (P48147 1-710): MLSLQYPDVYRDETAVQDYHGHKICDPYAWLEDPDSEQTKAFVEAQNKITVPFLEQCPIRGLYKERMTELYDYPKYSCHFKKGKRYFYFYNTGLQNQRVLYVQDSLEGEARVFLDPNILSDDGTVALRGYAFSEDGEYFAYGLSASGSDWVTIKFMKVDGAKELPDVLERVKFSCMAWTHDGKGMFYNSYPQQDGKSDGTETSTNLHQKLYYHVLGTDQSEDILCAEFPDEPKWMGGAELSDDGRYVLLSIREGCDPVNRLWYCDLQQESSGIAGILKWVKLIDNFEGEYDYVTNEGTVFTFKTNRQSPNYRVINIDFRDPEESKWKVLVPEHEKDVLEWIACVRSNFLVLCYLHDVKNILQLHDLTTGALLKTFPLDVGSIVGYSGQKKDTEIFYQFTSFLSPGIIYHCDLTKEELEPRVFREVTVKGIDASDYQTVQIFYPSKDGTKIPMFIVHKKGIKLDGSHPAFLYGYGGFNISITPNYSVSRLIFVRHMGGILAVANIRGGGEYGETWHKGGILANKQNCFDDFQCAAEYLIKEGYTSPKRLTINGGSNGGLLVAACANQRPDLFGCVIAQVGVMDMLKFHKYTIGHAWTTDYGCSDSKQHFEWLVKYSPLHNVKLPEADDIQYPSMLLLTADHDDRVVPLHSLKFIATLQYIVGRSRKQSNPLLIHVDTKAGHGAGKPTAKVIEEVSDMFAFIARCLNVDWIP
Description: (§1) Enzymes: A gateway-entry clone for human FAP was purchased from Dharmacon (Accession number DQ891423) and the human secretion signal was replaced with the HoneyBee mellitin secretion signal. For transfection and expression of FAP in Sf9 insect cells, the C-terminal BaculoDirect kit from LifeTechnologies was used. The enzyme was purified from the supernatant of the insect cells using immobilized Ni-chelating chromatography (GE healthcare, Diegem, Belgium), followed by anion-exchange chromatography using a 1 mL HiTrap Q (GE healthcare, Diegem, Belgium). Human recombinant PREP was expressed in BL21(DE3) cells and purified using immobilized Co-chelating chromatography (GE healthcare) followed by anion-exchange chromatography on a 1 ml Mono Q column (GE healthcare).
Eight concentrations of inhibitors were tested. The final DMSO concentration is kept constant during the experiment to exclude any effects. Inhibitors were pre-incubated with the enzyme for 15 min at 37 °C, afterwards the substrate was added and the velocities of AMC release were measured kinetically at λex = 380 nm, λem = 465 nm for at least 10 min at 37 °C. The Infinite 200 (Tecan Group Ltd.) micro-titer plate reader and the Magellan software were used for measurement and data processing, respectively.
(§2) The data were fitted using a non-linear fit model in GraFit 7 software, according to the following equation: y=range/1+x/IC50^s where y is the value of the residual enzymatic activity compared to a non-inhibited sample, x is the final inhibitor concentration in the assay, s is the slope factor and the IC50 is the half maximal inhibitory concentration.

human FAP = molecular target: T2, human FAP (Homo sapiens, UniProt Q12884); assay: FAP inhibition assay (IC50, Z-Gly-Pro-AMC substrate); type: biochemical; conditions: for IC50: Z-Gly-Pro-AMC 50 μM, pH 8, 15 min pre-incubation at 37 °C; for Selectivity index (IC50 PREP / IC50 FAP): ratio of the IC50 values for FAP and PREP
T2 construct: the human secretion signal was replaced with the HoneyBee mellitin secretion signal; HoneyBee mellitin secretion signal (replaces the native signal-anchor) (N); C-terminal tag of the BaculoDirect C-term kit (C); made in house; host or cells: Sf9 insect cells (baculovirus); purified from the supernatant
T2 sequence (Q12884 26-760 limits assumed): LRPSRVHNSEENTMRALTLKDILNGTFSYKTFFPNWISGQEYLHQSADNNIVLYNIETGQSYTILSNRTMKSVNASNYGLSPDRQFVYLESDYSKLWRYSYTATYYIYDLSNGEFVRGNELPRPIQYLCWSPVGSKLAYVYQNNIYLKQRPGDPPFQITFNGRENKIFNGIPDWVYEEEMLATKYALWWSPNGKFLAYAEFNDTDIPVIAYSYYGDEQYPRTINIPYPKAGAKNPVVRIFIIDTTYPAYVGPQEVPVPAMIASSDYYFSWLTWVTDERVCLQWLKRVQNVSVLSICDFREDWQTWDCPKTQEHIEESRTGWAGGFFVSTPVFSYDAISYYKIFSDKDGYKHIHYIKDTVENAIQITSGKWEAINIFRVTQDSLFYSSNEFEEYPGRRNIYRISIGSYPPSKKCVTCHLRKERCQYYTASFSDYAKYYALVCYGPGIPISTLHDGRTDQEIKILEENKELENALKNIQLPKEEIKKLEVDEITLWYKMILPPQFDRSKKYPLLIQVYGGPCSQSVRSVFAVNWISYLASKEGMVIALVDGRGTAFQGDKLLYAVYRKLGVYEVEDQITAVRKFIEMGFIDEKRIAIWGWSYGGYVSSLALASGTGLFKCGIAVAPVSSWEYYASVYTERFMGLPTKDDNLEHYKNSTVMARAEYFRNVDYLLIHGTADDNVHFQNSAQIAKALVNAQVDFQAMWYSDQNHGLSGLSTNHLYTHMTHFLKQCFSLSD
Description: as §1
Eight concentrations of inhibitors were tested. The final DMSO concentration was kept constant during the experiment to exclude any solvent effects. Inhibitors were pre-incubated with the enzyme for 15 min at 37 °C, afterwards the substrate was added and the velocities of AMC release were measured kinetically at λex = 380 nm, λem = 465 nm for at least 10 min at 37 °C. The Infinite 200 (Tecan Group Ltd.) micro-titer plate reader and the Magellan software were used for measurement and data processing respectively.
as §2

[2] = PANC-1 / MIA-PaCa-2, one value given

Compound: N#C[C@@H]1CC(F)(F)CN1C(=O)CNC(=O)c1ccnc2ccc(OCCCN3CCN(C(=O)CN4CCN(CC(=O)[O-])CCN(CC(=O)[O-])CCN(CC(=O)[O-])CC4)CC3)cc12.[68Ga+3] [[^68Ga]Ga-FAPI-04]
- SUVmean(60 min p.i.) Heart (PANC-1; [2]): 0.17
- SUVmean(60 min p.i.) Kidney (PANC-1; [2]): 0.36
- SUVmean(60 min p.i.) Liver (PANC-1; [2]): 0.67
- SUVmean(60 min p.i.) Muscle (PANC-1; [2]): 0.03
- SUVmean(60 min p.i.) Tumor (PANC-1; PANC-1 tumor model): 0.14
- SUVmean(60 min p.i.) Heart (HT-1080 FAP): 0.16
- SUVmean(60 min p.i.) Kidney (HT-1080 FAP): 0.33
- SUVmean(60 min p.i.) Liver (HT-1080 FAP): 0.11
- SUVmean(60 min p.i.) Muscle (HT-1080 FAP): 0.06
- SUVmean(60 min p.i.) Tumor (HT-1080 FAP): 0.45
- SUVmean(60 min p.i.) Tumor (MIA-PaCa-2): 0.11

Compound: CN(CC(=O)O)C1(CCCCC(=O)NCCNc2c(NCCCCOc3ccc4nccc(C(=O)NCC(=O)N5CC(F)(F)C[C@H]5C#N)c4c3)c(=O)c2=O)CN(CC(=O)O)CCN(CC(=O)O)C1 [DATA^5m.SA.FAPi, (S)-2,2′-(6-((carboxymethyl)(methyl)amino)-6-(5-((2-((2-((4-((4-((2-(2-cyano-4,4-difluoropyrrolidin-1-yl)-2-oxoethyl)carbamoyl)quinolin-6-yl)oxy)butyl)amino)-3,4-dioxocyclobut-1-en-1-yl)amino)ethyl)amino)-5-oxopentyl)-1,4-diazepane-1,4-diyl) diacetic acid]
- Stability in different media, intact conjugate [1]: more than 95%
- IC50 (Human recombinant PREP): 1700 ± 100 nM
- IC50 (human FAP): 0.8 ± 0.2 nM
- Selectivity index (IC50 PREP / IC50 FAP) (human FAP): 2113

Compound: N#C[C@@H]1CC(F)(F)CN1C(=O)CNC(=O)c1ccnc2ccc(OCCCCNc3c(NCCNC(=O)CN4CCN(CC(=O)O)CCN(CC(=O)O)CCN(CC(=O)O)CC4)c(=O)c3=O)cc12 [DOTA.SA.FAPi, (S)-2,2′,2″-(10-(2-((2-((2-((4-((4-((2-(2-cyano-4,4-difluoropyrrolidin-1-yl)-2-oxo-ethyl)carbamoyl)quinolin-6-yl)oxy)butyl)amino)-3,4-dioxocyclobut-1-en-1-yl)amino)ethyl)amino)-2-oxoethyl)-1,4,7,10-tetraazacyclododecane-1,4,7-triyl) triacetic acid]
- Stability in different media, intact conjugate [1]: more than 95%
- IC50 (Human recombinant PREP): 5400 ± 300 nM
- IC50 (human FAP): 0.9 ± 0.1 nM
- Selectivity index (IC50 PREP / IC50 FAP) (human FAP): 6000
